According to PubChem BioAssay (NCI):
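How tested: cells in 96-well plates exposed to compound for 48 hours at five concentrations. TGI marks complete inhibition of growth.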 Where a SMILES comes first, the peptide text is derived from it. The star is where a group is joined. OSu = O=C1CCC(=O)N1O*

Experiments:
Assay in all cases: NCI anticancer screen, dose series, 48 h
[1] = test system: A498 renal
[2] = test system: A549 NSCLC
[3] = test system: BT-549 breast
[4] = test system: CAKI-1 renal
[5] = test system: CCRF-CEM leukemia
[6] = test system: COLO 205 colon
[7] = test system: DU-145 prostate
[8] = test system: EKVX NSCLC
[9] = test system: HCC-2998 colon
[10] = test system: HCT-116 colon
[11] = test system: HCT-15 colon
[12] = test system: HOP-62 NSCLC
[13] = test system: HOP-92 NSCLC
[14] = test system: HT29 colon
[15] = test system: IGROV1 ovarian
[16] = test system: KM12 colon
[17] = test system: M14 melanoma
[18] = test system: MALME-3M melanoma
[19] = test system: MDA-MB-231 breast
[20] = test system: MDA-MB-435
[21] = test system: MDA-N
[22] = test system: MOLT-4 leukemia
[23] = test system: NCI-H23 lung
[24] = test system: NCI-H460 lung
[25] = test system: NCI-H522 lung
[26] = test system: OVCAR-3 ovarian
[27] = test system: OVCAR-4 ovarian
[28] = test system: OVCAR-5 ovarian
[29] = test system: PC-3 prostate
[30] = test system: RPMI-8226 leukemia
[31] = test system: SF-268 CNS
[32] = test system: SF-295 CNS
[33] = test system: SK-MEL-2 melanoma
[34] = test system: SK-MEL-28 melanoma
[35] = test system: SK-MEL-5 melanoma
[36] = test system: SK-OV-3 ovarian
[37] = test system: SN12C renal
[38] = test system: SNB-19 CNS
[39] = test system: SNB-75 CNS
[40] = test system: SR leukemia
[41] = test system: SW-620 colon
[42] = test system: TK-10 renal
[43] = test system: U251 CNS
[44] = test system: UACC-257 melanoma
[45] = test system: UACC-62 melanoma
[46] = test system: UO-31 renal
[47] = test system: 786-0 renal
[48] = test system: ACHN renal
[49] = test system: HL-60(TB) leukemia
[50] = test system: HS 578T breast
[51] = test system: K-562 leukemia
[52] = test system: LOX IMVI melanoma
[53] = test system: MCF7 breast
[54] = test system: NCI-H226 lung
[55] = test system: NCI/ADR-RES ovarian
[56] = test system: OVCAR-8 ovarian
[57] = test system: RXF 393 renal
[58] = test system: SF-539 CNS
[59] = test system: T-47D breast

Measured: TGI

CO[C@](C(=O)OC[C@H]1[C@@H](COC(C)=O)[C@@H]2O[C@H]1c1cc3c(cc12)OCO3)(c1ccccc1)C(F)(F)F
91.3 µM: [33]
17.2 µM: [25]
73.6 µM: [12]
58.6 µM: [32]
77.1 µM: [31]
38.7 µM: [30]
93.2 µM: [6]
98.8 µM: [8]
49.6 µM: [24]
94.3 µM: [2]
71.9 µM: [9]
55.4 µM: [46]
71.5 µM: [39]
81.1 µM: [15]
not listed: [47] | [48] | [49] | [50] | [51] | [52] | [53] | [54] | [55] | [56] | [57] | [58] | [59]
> 100 µM: all other assays above

C=CCNC(=S)N/C=C(\C#N)C(N)=O
not listed: [3] | [13] | [42]
> 100 µM: all other assays above

NCCCCC(NC(=O)C(N)Cc1ccc(O)cc1)C(=O)NC(CCCCN)C(=O)NC(CCCCN)C(=O)ON1C(=O)CCC1=O (stereo unspecified) (H-YKKK-OSu; configuration not given here)
not listed: [4] | [5] | [7] | [20] | [25] | [26] | [27] | [31] | [32] | [36] | [52] | [55] | [58]
> 100 µM: all other assays above

COC1=CC(=O)C(C2(OC(C)C)OC(=O)C(Cl)=C2Cl)=CC1=O (stereo unspecified)
1.55 µM: [49]
78.8 µM: [56]
96 µM: [25]
86.4 µM: [47]
10.8 µM: [51]
98.8 µM: [33]
not listed: [3] | [15] | [22] | [27] | [40] | [43]
> 100 µM: all other assays above
